# Where a SMILES comes first, the peptide text is derived from it. [ ]: non-standard residue; d: D form. ξ: configuration not given here. Arg(NO2) = N=C(NCCC[C@H](N)C(=O)O)N[N+](=O)[O-]; αMePhe(2,6-F2) = C[C@](N)(Cc1c(F)cccc1F)C(=O)O; ξαMePhe(2,6-F2) = CC(N)(Cc1c(F)cccc1F)C(=O)O; αMePhe(2-F) = C[C@](N)(Cc1ccccc1F)C(=O)O; ξαMePhe(2-F) = CC(N)(Cc1ccccc1F)C(=O)O; hArg = N=C(N)NCCCC[C@H](N)C(=O)O; Cit = NC(=O)NCCC[C@H](N)C(=O)O; Nle = CCCC[C@H](N)C(=O)O; Orn = NCCC[C@H](N)C(=O)O; Ac5c = NC1(C(=O)O)CCCC1; Aib = CC(C)(N)C(=O)O
# Experiments:
# Format in all cases: in vitro ADME
# [1] = Stability of peptides in human liver microsomes; conditions: human, microsomes; for % degradation of peptides in 24 h when incubated with liver microsomes: 2 μM, pH 7.8
# Description: (§1) b) Stability of Peptides in Human Plasma, Simulated Gastric Fluid, Intestinal Fluid and Liver Microsomes (Ex-Vivo): Different short-chain peptides (final concentration 2 μM) were incubated with either pooled human plasma (7.5 μL) or simulated gastric fluid (pH 1.5; composition HCl, NaCl and Pepsin) or simulated intestinal fluid (pH 7.5) or human liver microsomes, for 0, 2, 4, 6, 12 and 24 h (37° C.; 50 mM triethanolamine-HCl buffer; pH 7.8). Concentrations of human plasma/simulated gastric fluid/simulated intestinal fluid/human liver microsomes were selected in preliminary experiments to provide degradation of approximately 50% of PTH(1-34) within 1 h, therefore allowing time-dependent degradation to be viewed over 24 h. Reactions were terminated by the addition of TFA/H2O ([…], 10% (v/v)). The reaction products were then applied to a Vydac C18 analytical column (4.6×250-mm) and the major degradation fragment separated from intact short-chain peptides. The column was equilibrated with TFA/H20, at a flow rate of 1 mL/min. Using 0.1% (v/v) TFA in 70% acetonitrile/H2O, the concentration of acetonitrile in the eluting solvent was raised from 0% to 28% over 10 min and from 28% to 42% over 30 min. The absorbance was monitored at 206 nm using UV detector and peaks were collected manually prior to ESI-MS analysis. Area under the curve was measured for test peptides and their metabolites and percentage degradation were calculated at each time point over a period of 24 h. Stability study results of selected peptides, in human plasma, simulated gastric fluid, intestinal fluid and liver microsomes (in vitro) are listed in Table 4.
# [2] = Stability of peptides in simulated intestinal fluid (pH 7.5); conditions: pH 7.5; for half-life (t1/2) in simulated intestinal fluid / half-life: simulated gi fluid; for % degradation of peptides in 24 h when incubated with simulated intestinal fluid: 2 μM
# Description: as §1
# [3] = Stability of peptides in human plasma; conditions: human, plasma; for metabolised at 24 h, 2 μM: pH 7.8
# Description: as §1
# [4] = Stability of peptides in simulated gastric fluid (pH 1.5; HCl, NaCl and Pepsin); conditions: pH 1.5; for % degradation of peptides in 24 h when incubated with simulated gastric fluid: 2 μM; for half-life (t1/2) in simulated gastric fluid / half-life: simulated gi fluid
# Description: as §1
SMILES,half-life [1] [h],% degradation of peptides in 24 h when incubated with liver microsomes [1] [%],half-life (t1/2) in simulated intestinal fluid [2],% degradation of peptides in 24 h when incubated with simulated intestinal fluid [2] [%],half-life [3] [h],"metabolised at 24 h, 2 μM [3] [%]",% degradation of peptides in 24 h when incubated with simulated gastric fluid [4] [%],half-life (t1/2) in simulated gastric fluid [4],half-life (t1/2) in liver microsomes [1],half-life [2] [h],half-life [4] [h],half-life (t1/2) in human plasma [3]
CCCC[C@H](NC(=O)C(C)(Cc1ccccc1F)NC(=O)[C@H](CCC(N)=O)NC(=O)[C@@H](NC(=O)[C@H](CCC(=O)O)NC(=O)C(C)(C)NC(=O)[C@@H](NC(=O)C(C)(C)N)C(C)C)[C@@H](C)CC)C(=O)N[C@@H](Cc1c[nH]cn1)C(=O)N[C@@H](CCC(N)=O)C(=O)N[C@@H](CCCCNC(=N)N)C(=O)N[C@@H](C)C(=O)NC(C)(C)C(=O)NC(C)(Cc1ccccc1F)C(N)=O (stereo partly drawn) [Seq. ID. 161] (H-[Aib]V[Aib]EIQ[ξαMePhe(2-F)][Nle]HQ[hArg]A[Aib][ξαMePhe(2-F)]-NH2),1,80,(6) h,43,8,78,14,(8) h,–,–,–,–
"CCCC[C@H](NC(=O)C(C)(Cc1c(F)cccc1F)NC(=O)[C@H](CCC(N)=O)NC(=O)[C@@H](NC(=O)[C@H](CCC(=O)O)NC(=O)C(C)(C)NC(=O)[C@@H](NC(=O)C1(N)CCCC1)C(C)C)[C@@H](C)CC)C(=O)N[C@@H](Cc1c[nH]cn1)C(=O)N[C@@H](CCC(N)=O)C(=O)N[C@@H](CCCCNC(=N)N)C(=O)NC(C)(C)C(=O)NC(C)(Cc1c(F)cccc1F)C(=O)NC(C)(Cc1ccccc1F)C(N)=O (stereo partly drawn) [Seq. ID. 220] (H-[Ac5c]V[Aib]EIQ[ξαMePhe(2,6-F2)][Nle]HQ[hArg][Aib][ξαMePhe(2,6-F2)][ξαMePhe(2-F)]-NH2)",1,83,(6) h,46,8,75,12,(8) h,–,–,–,–
"CCCC[C@H](NC(=O)C(C)(Cc1c(F)cccc1F)NC(=O)[C@H](CCC(N)=O)NC(=O)[C@@H](NC(=O)[C@H](CCC(=O)O)NC(=O)C(C)(C)NC(=O)[C@@H](NC(=O)C1(N)CCCC1)C(C)C)[C@@H](C)CC)C(=O)N[C@@H](Cc1c[nH]cn1)C(=O)N[C@@H](CCC(N)=O)C(=O)N[C@@H](CCCCNC(=N)N)C(=O)NC(C)(C)C(=O)NC(C)(Cc1c(F)cccc1F)C(=O)NC(C)(Cc1c(F)cccc1F)C(N)=O (stereo partly drawn) [Seq. ID. 240] (H-[Ac5c]V[Aib]EIQ[ξαMePhe(2,6-F2)][Nle]HQ[hArg][Aib][ξαMePhe(2,6-F2)][ξαMePhe(2,6-F2)]-NH2)",1,78,(6) h,40,8,71,14,(8) h,–,–,–,–
CCCC[C@H](NC(=O)C(C)(Cc1ccccc1F)NC(=O)[C@H](CCC(N)=O)NC(=O)[C@@H](NC(=O)[C@H](CCC(=O)O)NC(=O)C(C)(C)NC(=O)[C@@H](NC(=O)C1(N)CCCC1)C(C)C)[C@@H](C)CC)C(=O)N[C@@H](Cc1c[nH]cn1)C(=O)N[C@@H](CCC(N)=O)C(=O)N[C@@H](CCCCNC(=N)N)C(=O)NC(C)(C)C(=O)N[C@@H](CCCNC(=N)N[N+](=O)[O-])C(=O)NC(C)(Cc1ccccc1F)C(N)=O (stereo partly drawn) [Seq. ID. 250] (H-[Ac5c]V[Aib]EIQ[ξαMePhe(2-F)][Nle]HQ[hArg][Aib][Arg(NO2)][ξαMePhe(2-F)]-NH2),1,80,(6) h,43,8,78,14,(8) h,–,–,–,–

# Continued, values first:
half-life [1] [h],% degradation of peptides in 24 h when incubated with liver microsomes [1] [%],half-life (t1/2) in simulated intestinal fluid [2],% degradation of peptides in 24 h when incubated with simulated intestinal fluid [2] [%],half-life [3] [h],"metabolised at 24 h, 2 μM [3] [%]",% degradation of peptides in 24 h when incubated with simulated gastric fluid [4] [%],half-life (t1/2) in simulated gastric fluid [4],half-life (t1/2) in liver microsomes [1],half-life [2] [h],half-life [4] [h],half-life (t1/2) in human plasma [3],SMILES
1,82,(6) h,50,8,80,13,(8) h,–,–,–,–,"CCCC[C@H](NC(=O)[C@](C)(Cc1ccccc1F)NC(=O)[C@H](CCC(N)=O)NC(=O)[C@@H](NC(=O)[C@H](CCC(=O)O)NC(=O)C(C)(C)NC(=O)[C@@H](NC(=O)C(C)(C)N)C(C)C)[C@@H](C)CC)C(=O)N[C@@H](Cc1c[nH]cn1)C(=O)N[C@@H](CCC(N)=O)C(=O)N[C@@H](CCCCNC(=N)N)C(=O)NC(C)(C)C(=O)N[C@@H](CCCNC(N)=O)C(=O)N[C@@](C)(Cc1c(F)cccc1F)C(N)=O [Seq. ID. 142] (H-[Aib]V[Aib]EIQ[αMePhe(2-F)][Nle]HQ[hArg][Aib][Cit][αMePhe(2,6-F2)]-NH2)"
–,26,–,00,> 24,0,00,–,(5) h,> 24,> 24,–,"CCCC[C@H](NC(=O)C(C)(Cc1ccccc1F)NC(=O)[C@H](CCC(N)=O)NC(=O)[C@@H](NC(=O)[C@H](CCC(=O)O)NC(=O)C(C)(C)NC(=O)[C@@H](NC(=O)C(C)(C)N)C(C)C)[C@@H](C)CC)C(=O)N[C@@H](Cc1c[nH]cn1)C(=O)N[C@@H](CCC(N)=O)C(=O)N[C@@H](CCCCNC(=N)N)C(=O)NC(C)(C)C(=O)NC(C)(C)C(=O)NC(C)(Cc1c(F)cccc1F)C(N)=O (stereo partly drawn) [Seq. ID. 182] (H-[Aib]V[Aib]EIQ[ξαMePhe(2-F)][Nle]HQ[hArg][Aib][Aib][ξαMePhe(2,6-F2)]-NH2)"
1,77,(6) h,41,8,70,15,(8) h,–,–,–,–,"CCCC[C@H](NC(=O)C(C)(Cc1c(F)cccc1F)NC(=O)[C@H](CCC(N)=O)NC(=O)[C@@H](NC(=O)[C@H](CCC(=O)O)NC(=O)C(C)(C)NC(=O)[C@@H](NC(=O)C1(N)CCCC1)C(C)C)[C@@H](C)CC)C(=O)N[C@@H](Cc1c[nH]cn1)C(=O)N[C@@H](CCC(N)=O)C(=O)N[C@@H](CCCCNC(=N)N)C(=O)NC(C)(C)C(=O)N[C@@H](CCCNC(=N)N[N+](=O)[O-])C(=O)NC(C)(Cc1ccccc1F)C(N)=O (stereo partly drawn) [Seq. ID. 260] (H-[Ac5c]V[Aib]EIQ[ξαMePhe(2,6-F2)][Nle]HQ[hArg][Aib][Arg(NO2)][ξαMePhe(2-F)]-NH2)"
0.5,100,–,100,–,78,100,–,–,0.5,0.5,(9) h,"CCCC[C@H](NC(=O)C(C)(Cc1ccccc1F)NC(=O)[C@H](CCC(N)=O)NC(=O)[C@@H](NC(=O)[C@H](CCC(=O)O)NC(=O)C(C)(C)NC(=O)[C@@H](NC(=O)C1(N)CCCC1)C(C)C)[C@@H](C)CC)C(=O)N[C@@H](Cc1c[nH]cn1)C(=O)N[C@@H](CCC(N)=O)C(=O)N[C@@H](CCCCNC(=N)N)C(=O)NC(C)(C)C(=O)N[C@@H](CCCNC(=N)N[N+](=O)[O-])C(=O)NC(C)(Cc1c(F)cccc1F)C(N)=O (stereo partly drawn) [Seq. ID. 270] (H-[Ac5c]V[Aib]EIQ[ξαMePhe(2-F)][Nle]HQ[hArg][Aib][Arg(NO2)][ξαMePhe(2,6-F2)]-NH2)"
0.5,100,–,100,–,75,100,–,–,0.5,0.5,(9) h,"CCCC[C@H](NC(=O)C(C)(Cc1ccccc1F)NC(=O)[C@H](CCC(N)=O)NC(=O)[C@@H](NC(=O)[C@H](CCC(=O)O)NC(=O)C(C)(C)NC(=O)[C@@H](NC(=O)C(C)(C)N)C(C)C)[C@@H](C)CC)C(=O)N[C@@H](Cc1c[nH]cn1)C(=O)N[C@@H](CCC(N)=O)C(=O)N[C@@H](CCCN)C(=O)NC(C)(C)C(=O)N[C@@H](CCCNC(N)=O)C(=O)NC(C)(Cc1c(F)cccc1F)C(N)=O (stereo partly drawn) [Seq. ID. 290] (H-[Aib]V[Aib]EIQ[ξαMePhe(2-F)][Nle]HQ[Orn][Aib][Cit][ξαMePhe(2,6-F2)]-NH2)"

# Source: patent US8383581B2, “Short-chain peptides as parathyroid hormone (PTH) receptor agonist” (Cadila Healthcare Limited, priority 2009, dated 2013)
